The values that follow come from ChEMBL document CHEMBL5036379, “Identification of Slow-Binding Inhibitors of the BoNT/A Protease” (ACS Med Chem Lett, 2022).

In data set [1] the target is Botulinum neurotoxin type A (Clostridium botulinum) (UniProt P0DPI0). Put plainly: Inhibition of Clostridium botulinum BoNT/A light chain assessed as inhibition constant at 6 to 30 uM using SNAPtide flp6 as substrate measured after 30 mins by FRET assay. Particulars: dose 6-30 µM.
A short description of data set [2]: Half life of compound. Type of data set: physicochemical.
Data set [3] deals with Botulinum neurotoxin type A (Clostridium botulinum, UniProt P0DPI0). The data set is described as follows: Inhibition of Clostridium botulinum BoNT/A light chain assessed as inhibition constant at 10 nM using SNAPtide flp6 as substrate measured after 30 mins by FRET assay.
The target in data set [4] is Botulinum neurotoxin type A (Clostridium botulinum) (UniProt P0DPI0). Put plainly: Inhibition of BoNT/A light chain at 1 to 32 uM using SNAPtide flp6 as substrate measured after 30 mins by FRET assay. The conditions noted are these: dose 1-32 µM, TDE = time-dependent effect.

The structures appear in SMILES notation. The source made the active and inactive calls. The rule behind the calls is not given here.

Botulinum neurotoxin type A, sequence (P0DPI0 2-448 limits assumed): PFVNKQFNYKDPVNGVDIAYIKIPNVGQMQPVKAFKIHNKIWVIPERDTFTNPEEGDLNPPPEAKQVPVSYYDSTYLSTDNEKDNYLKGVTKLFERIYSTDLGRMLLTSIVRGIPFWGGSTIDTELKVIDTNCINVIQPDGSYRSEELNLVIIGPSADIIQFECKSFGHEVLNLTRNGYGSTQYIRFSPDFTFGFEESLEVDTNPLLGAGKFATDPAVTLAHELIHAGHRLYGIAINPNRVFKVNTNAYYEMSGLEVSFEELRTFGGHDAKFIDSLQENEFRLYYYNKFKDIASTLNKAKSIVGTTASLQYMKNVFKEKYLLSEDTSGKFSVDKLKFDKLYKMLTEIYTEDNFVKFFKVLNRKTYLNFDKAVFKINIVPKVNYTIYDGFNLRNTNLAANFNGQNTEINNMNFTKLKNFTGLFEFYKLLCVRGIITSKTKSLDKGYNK
Botulinum neurotoxin type A (Clostridium botulinum), sequence (P0DPI0 2-448 limits assumed): as above

Usually half-life stands for how long it takes for the measured level to halve. Read a low half-life as rapid decline. As for `O=C(/C=C/c1ccc(Cl)cc1Cl)N(O)CCCCCC1CC1`, the inhibition result in data set [1] was “Active”. The same compound gave a half-life in data set [2] of 33 min.
In general, Ki refers to a measure of affinity in units of concentration, obtained from inhibition or displacement. With `C=CCCCN(O)C(=O)/C=C/c1ccc(Cl)cc1Cl`, the Ki in data set [3] was over 8 µM. In data set [4], the inhibition result was “Tde”.
As to `C=CN(O)C(=O)/C=C/c1ccc(Cl)cc1Cl`, the Ki in data set [3] is over 32 µM.
With `C=CCN(O)C(=O)/C=C/c1ccc(Cl)cc1Cl`, the inhibitory constant (Ki) in data set [3] was over 16 µM.
Take `C=CCCCCN(O)C(=O)/C=C/c1ccc(Cl)cc1Cl`: in data set [3], the Ki is 6.31 µM. In addition, in data set [4], the inhibition entry is “Tde”.
As for `C=CCCCCCN(O)C(=O)/C=C/c1ccc(Cl)cc1Cl`, the inhibitory constant (Ki) in data set [3] is 4.66 µM. Also, the inhibition entry in data set [4] is “Tde”.
For the compound `C=CCCCCCCN(O)C(=O)/C=C/c1ccc(Cl)cc1Cl`, the Ki in data set [3] was determined as 2.84 µM. Besides, the inhibition result in data set [4] was “Tde”.
As for `CCCCCCCN(O)C(=O)/C=C/c1ccc(Cl)cc1Cl`, the Ki in data set [3] was determined as 2.47 µM.
